One experiment deals with P-450cam mutant Y96A (Pseudomonas putida, UniProt P00183, Y97A). In words: biochemical. It counts as binding. Particulars: read-out: Vs DTT (percentage displacement of DTT bound to P-450); for percent displacement of bound DTT at 200 µM: Mutant Y96A, 200 μM DTT, 200 μM test compound, phosphate buffer.
The target in the next experiment is wild type P450cam (Pseudomonas putida, UniProt P00183). The experiment can be described thus: biochemical. Particulars: read-out: Vs DTT (percentage displacement of DTT bound to P-450). The experiment is classed as binding.
Sequence of wild type P450cam (P00183 whole entry): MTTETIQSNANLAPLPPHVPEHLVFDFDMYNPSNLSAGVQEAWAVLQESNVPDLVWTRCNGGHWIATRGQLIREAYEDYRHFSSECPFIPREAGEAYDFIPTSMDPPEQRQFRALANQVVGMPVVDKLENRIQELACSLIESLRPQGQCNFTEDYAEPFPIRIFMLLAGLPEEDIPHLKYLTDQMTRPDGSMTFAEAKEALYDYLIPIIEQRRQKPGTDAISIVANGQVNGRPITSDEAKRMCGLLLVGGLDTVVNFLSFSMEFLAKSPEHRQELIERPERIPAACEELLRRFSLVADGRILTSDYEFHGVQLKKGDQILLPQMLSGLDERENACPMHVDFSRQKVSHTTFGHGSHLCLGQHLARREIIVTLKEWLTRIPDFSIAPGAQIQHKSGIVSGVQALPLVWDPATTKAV
Where [1] appears, read: Wild type, 200 μM DTT, 200 μM test compound, phosphate buffer.

Where two headings read alike, the source gives them in different places.

Sequence of P-450cam mutant Y96A (P00183 2-415 Y97A): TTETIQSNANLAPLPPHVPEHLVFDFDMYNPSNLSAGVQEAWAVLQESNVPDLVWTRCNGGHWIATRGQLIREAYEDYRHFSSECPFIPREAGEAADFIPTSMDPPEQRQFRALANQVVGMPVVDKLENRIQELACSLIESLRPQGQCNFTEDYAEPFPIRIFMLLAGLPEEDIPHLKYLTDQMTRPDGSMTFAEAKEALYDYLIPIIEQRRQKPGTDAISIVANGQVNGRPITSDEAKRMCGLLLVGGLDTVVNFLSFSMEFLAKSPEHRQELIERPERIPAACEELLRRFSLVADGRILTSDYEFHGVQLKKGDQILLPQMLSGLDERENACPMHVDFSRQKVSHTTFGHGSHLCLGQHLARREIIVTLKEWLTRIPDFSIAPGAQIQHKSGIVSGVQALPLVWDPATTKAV

As for `CCCCCCCC/C=C\CCCCCCCC(=O)O` [Oleic acid], the percent displacement of bound DTT at 200 µM on P-450cam mutant Y96A is about 20%. Besides, the inhibition at 200 µM at wild type P450cam (setting [1]) is about 10%.
In the case of `C=Cc1ccccc1` [Styrene], at P-450cam mutant Y96A, the percent displacement of bound DTT at 200 µM worked out at 30%.
Turning to `CCC(=O)Oc1cccc2ccccc12` [1-Naphthylpropionate], the percent displacement of bound DTT at 200 µM at P-450cam mutant Y96A was 20%. Also, the inhibition at 200 µM at wild type P450cam (setting [1]) was 20%.
Turning to `c1ccc(-c2ccccc2)cc1` [Biphenyl], the inhibition at 200 µM at P-450cam mutant Y96A turned out to be 90%; at wild type P450cam it was 20%.
Take `O=C(c1ccccc1)c1ccc2ccccc2c1` [Naphthylphenylketone]: the percent displacement of bound DTT at 200 µM at P-450cam mutant Y96A is 5%. Moreover, on wild type P450cam (setting [1]), the inhibition at 200 µM turned out to be 5%.
For `CCCCCCCCCCCC` [n-Dodecane], the percent displacement of bound DTT at 200 µM at P-450cam mutant Y96A stood at 5%.
For the molecule `C=CC(=C)C` [Isoprene], the percent displacement of bound DTT at 200 µM on P-450cam mutant Y96A is 10%.
In the case of `Cc1ccccc1` [Toluene], the percent displacement of bound DTT at 200 µM at P-450cam mutant Y96A came out at 30%.
For the molecule `C(=C/c1ccccc1)/c1ccccc1` [cis-Stilbene], on P-450cam mutant Y96A, the percent displacement of bound DTT at 200 µM worked out at 50%. The inhibition at 200 µM at wild type P450cam (setting [1]) worked out at 20%.
`c1ccc2c(c1)Cc1ccccc1-2` [Fluorene]: the percent displacement of bound DTT at 200 µM at P-450cam mutant Y96A turned out to be 50%.
Turning to `CCCC(=O)Oc1cccc2ccccc12` [1-Naphthylbutyrate], on P-450cam mutant Y96A, the percent displacement of bound DTT at 200 µM was found to be 5%. For the same molecule, the inhibition at 200 µM at wild type P450cam (setting [1]) came out at 5%.
As for `CCCCCCCCCCC` [n-Undecane], the percent displacement of bound DTT at 200 µM on P-450cam mutant Y96A stood at 20%.
On the same count and under the same terms, the result for `CCc1cccc2ccccc12` [1-Ethylnaphthalene] reads 20%.
For the molecule `O=C(Oc1ccccc1)c1ccccc1` [Phenylbenzoate], the inhibition at 200 µM on wild type P450cam (setting [1]) stood at 5%.
On to `CC(=O)Oc1ccc2ccccc2c1` [2-Naphthylacetate], for which the percent displacement of bound DTT at 200 µM at P-450cam mutant Y96A came out at 5%. In addition, the inhibition at 200 µM on wild type P450cam (setting [1]) amounted to 5%.
On to `CCc1ccc2ccccc2c1` [2-Ethylnaphthalene], for which the percent displacement of bound DTT at 200 µM at P-450cam mutant Y96A worked out at 20%.
Turning to `C1=CCCCC1` [Cyclohexene], the percent displacement of bound DTT at 200 µM on P-450cam mutant Y96A stood at 40%. In addition, the inhibition at 200 µM at wild type P450cam (setting [1]) is 5%.
On the same counts, the results for `O=C1c2ccccc2-c2ccccc21` [9-Fluorenone] are 5% and 20%.
On to `CCc1ccccc1` [Ethylbenzene], for which, at P-450cam mutant Y96A, the percent displacement of bound DTT at 200 µM is 40%.
As for `CCCCCCCCCCCCOS(=O)(=O)O` [SDS], the percent displacement of bound DTT at 200 µM at P-450cam mutant Y96A stood at 60%. Further, the inhibition at 200 µM on wild type P450cam (setting [1]) amounted to 20%.
For `CC(=O)Oc1cccc2ccccc12` [1-Naphthylacetate] the same measures were 5% and 5%.
With `O=Cc1ccc2c(c1)Cc1ccccc1-2` [2-Fluorencarboxzaldehyde], the percent displacement of bound DTT at 200 µM at P-450cam mutant Y96A stood at 50%.
In the case of `CC(C)=CCC/C(C)=C/CC/C(C)=C/CC/C=C(\C)CC/C=C(\C)CCC=C(C)C` [Squalene], the percent displacement of bound DTT at 200 µM on P-450cam mutant Y96A is 20%.
In the case of `O=C1c2ccccc2Cc2ccccc21` [Anthrone], the percent displacement of bound DTT at 200 µM on P-450cam mutant Y96A came to 5%. Moreover, at wild type P450cam (setting [1]), the inhibition at 200 µM was found to be 5%.
`O=C(c1ccccc1)C1CCCCC1` [Cyclohexylphenylketone]: at wild type P450cam (setting [1]), the inhibition at 200 µM is 30%.
As for `c1ccc(CCc2ccccc2)cc1` [Bibenzyl], the percent displacement of bound DTT at 200 µM on P-450cam mutant Y96A was 55%.
With `c1ccc(CNc2ccccc2)cc1` [N-Phenylbenzylamine], the inhibition at 200 µM on wild type P450cam (setting [1]) amounted to 5%.
For `c1ccc(COCc2ccccc2)cc1` [Benzylether], the inhibition at 200 µM on wild type P450cam (setting [1]) is 5%.

For the origin of these results see patent US6100074A, “Mutant mono-oxygenase cytochrome P-450 cam” (BG plc, priority 1994, dated 2000).
